Data taken from patent US20230041980A1, “METHOD OF PROTECTING A RESPIRATORY TRACT OR A LUNG FROM DAMAGE, METHOD OF PROTECTING A LUNG FROM PRESSURE DAMAGE INDUCED BY A VENTILATOR, METHOD OF SUPPRESSING SPREAD OF INFECTION WITH VIRUSES OR BACTERIA THAT CAUSE PNEUMONIA IN PULMONARY BRONCHIAL EPITHELIAL CELLS OR ALVEOLAR EPITHELIAL CELLS, AND …” (NEXT21 KABUSHIKI KAISHA, priority 2020, published 2023).

How the values were obtained:
[1] = test system: IgE antibody; experiment: IgE antibody levels in serum of OVA asthma model mice; format: in vivo, BALB/c mice; details: 10% trehalose by inhalation 20 min daily, day 27-31, OVA/OVA+Treh vs OVA/OVA, P<0.05
Protocol: Asthma model mice were produced using BALB/c mice (8 to 10 weeks old) and ovalbumin (OVA) serving as an antigen, and examinations were conducted by administering trehalose by inhalation. On the first day and the fourteenth day, a physiological saline solution or OVA was intraperitoneally administered. 20 micrograms of OVA was administered to one mouse using aluminum hydroxide as an adjuvant. From the twenty-seventh day to the thirty-first day, 10% trehalose or distilled water was administered by inhalation for 20 minutes every day. Moreover, from the twenty-eighth day to the thirtieth day, a physiological saline solution or 1% OVA was administered by inhalation for 20 minutes, 1 to 1.5 hours after the above-mentioned inhalation. On the thirty-second day, evaluation was conducted using an assay system for evaluating allergic airway inflammation and hyperresponsive airway. FIGS. 1A and 1B show the measurement results of the IgE antibodylevels in the serum. […] Suppressing the production of IgE antibodies makes it possible to suppress an increase in the severity of pulmonary tissue lesion caused by cytokine storm, which is an overreaction of the immune system caused by chemical mediators from mast cells. […]

[2] = test system: Asthma model mice; experiment: Airway resistance and compliance of OVA asthma model mice; format: in vivo, BALB/c mice; details: versus amount of muscarine receptor stimulant, inhalation, compared with OVA/OVA; for airway resistance: FIG. 2A; for compliance: FIG. 2B
Protocol: (§1) Asthma model mice were produced using BALB/c mice (8 to 10 weeks old) and ovalbumin (OVA) serving as an antigen, and examinations were conducted by administering trehalose by inhalation. On the first day and the fourteenth day, a physiological saline solution or OVA was intraperitoneally administered. 20 micrograms of OVA was administered to one mouse using aluminum hydroxide as an adjuvant. From the twenty-seventh day to the thirty-first day, 10% trehalose or distilled water was administered by inhalation for 20 minutes every day. Moreover, from the twenty-eighth day to the thirtieth day, a physiological saline solution or 1% OVA was administered by inhalation for 20 minutes, 1 to 1.5 hours after the above-mentioned inhalation. On the thirty-second day, evaluation was conducted using an assay system for evaluating allergic airway inflammation and hyperresponsive airway.
The airway resistance and the compliance of the model mice of Example 1 were measured. […] On the other hand, FIGS. 2A and 2B also show the results of the experiment in which lactose was used instead of trehalose (OVA/OVA+Lac).

[3] = test system: alveolar epithelial cells; experiment: Pulmonary tissue sections, H.E. and PAS staining, asthma model mice; format: in vivo, BALB/c mice; details: primary inhalation of trehalose, FIGS. 3A, 3B
Protocol: as §1, with “airway. Pulmonary tissue pathological sections were produced from the model mice of Example 1, and the diseases state was observed through hematoxylin-eosin (H.E.) staining and periodic acid-Schiff (PAS) staining. FIGS. 3A and 3B show the results of H.E. staining and the results of PAS staining, respectively.” for “airway.”

[4] = test system: Asthma model mice; experiment: Numbers of inflammation-inducing cells in bronchoalveolar lavage fluid; format: in vivo, BALB/c mice; details: inhalation; compared with OVA/OVA; FIG. 4
Protocol: as §1, with “airway. Bronchoalveolar lavage was performed on the model mice of Example 1, and the numbers of various cells obtained through the bronchoalveolar lavage were compared and examined. It should be noted that, in this example, 0.5 mL of a physiological saline solution containing 50 μg of ovalbumin (OVA) and 1 mg of aluminum hydroxide gel serving as an adjuvant was administered to OVA-administration mice (OVA/OVA) […]. […]” for “airway.”

[5] = test system: IL-4; experiment: IL-4 level in bronchoalveolar lavage fluid (ELISA); format: in vivo, BALB/c mice; details: OVA/OVA+Treh vs OVA/OVA, FIG. 5A
Protocol: as §1, with “airway. Bronchoalveolar lavage was performed on the model mice of Example 1, and the numbers of various cells obtained through the bronchoalveolar lavage were compared and examined. […] The cytokine levels in the bronchoalveolar lavage fluids obtained in Example 4 were measured using an ELISA measurement kit. […] It should be noted that interferon (IFN-γ) was not detected from any of the groups. […]” for “airway.”

[6] = test system: IL-5; experiment: IL-5 level in bronchoalveolar lavage fluid (ELISA); format: in vivo, BALB/c mice; details: OVA/OVA+Treh vs OVA/OVA, FIG. 5B
Protocol: as §1, with “airway. Bronchoalveolar lavage was performed on the model mice of Example 1, and the numbers of various cells obtained through the bronchoalveolar lavage were compared and examined. […] The cytokine levels in the bronchoalveolar lavage fluids obtained in Example 4 were measured using an ELISA measurement kit. […] It should be noted that interferon (IFN-γ) was not detected from any of the groups. […]” for “airway.”

[7] = test system: IL-13; experiment: IL-13 level in bronchoalveolar lavage fluid (ELISA); format: in vivo, BALB/c mice; details: OVA/OVA+Treh vs OVA/OVA, FIG. 5C
Protocol: as §1, with “airway. Bronchoalveolar lavage was performed on the model mice of Example 1, and the numbers of various cells obtained through the bronchoalveolar lavage were compared and examined. […] The cytokine levels in the bronchoalveolar lavage fluids obtained in Example 4 were measured using an ELISA measurement kit. […] It should be noted that interferon (IFN-γ) was not detected from any of the groups. […]” for “airway.”

[8] = test system: RAW264.7 cells (macrophages); experiment: Lipid peroxides (LPO) in cells treated with hemolysate; format: cell-based; details: 5% trehalose, 10% hemolysate for 3 hours, FIG. 6A
Protocol: (§2) Suppression of PLA2 activation caused by applying hydrogen peroxide stimulus to RAW264.7 cells (macrophages) was measured using [^3H]-AA release assay. FIGS. 6A and 6B show the measurement results showing the influence of trehalose on hemolysate or oxygen free radicals. FIGS. 6A and 6B show the measurement results in the case where a culture medium or hemolysate contains a physiological saline solution (Sal), 5% trehalose (Ire), or 5% maltose (Mal). […] In this experiment, RAW264.7 cells were treated with 10% hemolysate for 3 hours. The hemolysate was prepared as a supernatant by suspending erythrocytes of a Wistar rat in a saline solution, an aqueous solution of trehalose, or an aqueous solution of maltose, sonicating the resulting suspension, and then centrifuging the suspension. The LPO level was measured through a colorimetric analysis using a divalent iron molecule. […] In this experiment, RAW264.7 cells were labeled with [3H] arachidonic acid overnight and then treated with hydrogen peroxide for 3 hours. The level of released arachidonic acid was quantified by measuring the radioactivity of the collected culture medium.

[9] = test system: RAW264.7 cells (macrophages); experiment: [3H]-arachidonic acid release after hydrogen peroxide stimulus; format: cell-based; details: 5% trehalose, hydrogen peroxide for 3 hours, FIG. 6B
Protocol: as §2

[10] = test system: TNF-α; experiment: TNF-α induced by homogenized cell lysate (ELISA); format: cell-based; details: RAW264.7 cells
[11] = test system: IL-1α; experiment: IL-1α induced by homogenized cell lysate (ELISA); format: cell-based; details: lysate homogenized in 10% aqueous trehalose vs saline; RAW264.7 cells, 8 hours; FIG. 7B
[12] = test system: prostaglandin E2; experiment: Prostaglandin E2 induced by homogenized cell lysate (EIA); format: cell-based; details: lysate homogenized in 10% aqueous trehalose vs saline; RAW264.7 cells, 8 hours; FIG. 7C
[13] = test system: TGF-β1; experiment: TGF-β1 induced by homogenized cell lysate (ELISA); format: cell-based; details: lysate homogenized in 10% aqueous trehalose vs saline; RAW264.7 cells, 8 hours; acid-treated medium; FIG. 7D
Protocol: Moreover, RAW264.7 cells cultured in a 225-cm^2 flask were homogenized in a physiological saline solution (saline) or a 10% aqueous solution of trehalose (trehalose) using a homogenizer, and cell lysate was thus prepared. The above-mentioned cell lysate was added to RAW264.7 cells that were being cultured in 6 wells, and the cells were cultured for another 8 hours. Then, the culture medium was collected. The culture medium was treated with acid, and then TGF-β1 in the culture medium was measured using ELISA (manufactured by R&D Systems).
In the above-mentioned tests, the cell lysate obtained through homogenization using a homogenizer was used as a model of cell disruption caused by damage (including a surgical operation).

[14] = test system: TNF-α; experiment: TNF-α induced by heat-shocked dead cell solution (ELISA); format: cell-based; details: 10% aqueous trehalose vs saline added to cell solution (53° C. 10 minutes); RAW264.7 cells, 8 hours; FIG. 7E
Protocol: Moreover, RAW264.7 cells cultured in a 225-cm^2 flask were collected, and heat shock was applied to the cells at 53° C. for 10 minutes. Then, the cells were left to stand at 37° C. for 5 hours to induce cell death, and the resulting solution was used as a cell solution. Thereafter, a physiological saline solution (saline) or a 10% aqueous solution of trehalose (trehalose) was added to the cell solution, and the resulting solution was treated on ice for 30 minutes. The above-mentioned cell solution was added to RAW264.7 cells that were being cultured in 6 wells, and the cells were cultured for another 8 hours. Then, TNF-α was measured using ELISA (manufactured by R&D Systems).
In this test, the cell solution including dead cells induced by heat shock was used as a model of cell disruption caused by a burn.

[15] = test system: oral epithelial cell line (Ca9-22); experiment: LIVE/DEAD assay after drying stimulus; format: cell-based; details: 7.5% trehalose pretreatment 15 minutes, dried 7 minutes, FIG. 8A
[16] = test system: PLA2; experiment: Released [3H]-arachidonic acid after drying stimulus (PLA2 activation); format: cell-based; details: 7.5% trehalose pretreatment 15 minutes, dried 7 minutes; Ca9-22; FIG. 8B
Protocol: The oral epithelial cell line (Ca9-22) maintained in DMEM-10% FBS was treated with [^3H]-arachidonic acid overnight. Pretreatment with a physiological saline solution (Sal), 7.5% trehalose (Tre), or 7.5% maltose (Mal) was conducted for 15 minutes, and then the cells were dried for 7 minutes. Subsequently, a culture medium was added, and then the cells were cultured for 1 hour.

Compound | total IgE level in serum ([1]; FIG. 1A) | level of IgE specific to the antigen (ovalbumin) in serum ([1]; FIG. 1B) | airway resistance [2] | compliance [2] | damage to alveolar epithelial cells (inflammatory cell infiltration, goblet cell hyperplasia) [3] | numbers of inflammation-inducing cells in bronchoalveolar lavage fluid (Total, Mo, Ly, Eo, Nt) [4] | IL-4 level in bronchoalveolar lavage fluid [5] | IL-5 level in bronchoalveolar lavage fluid [6] | IL-13 level in bronchoalveolar lavage fluid [7] | lipid peroxides (LPO) level [8] | level of released arachidonic acid [9] | dose dependence of suppression of the TNT-α production ([10]; cell lysate model) | TNF-α level induced by cell lysate ([10]; lysate homogenized in 10% aqueous trehalose vs saline, 8 hours, FIG. 7A) | IL-1α level induced by cell lysate [11] | prostaglandin E2 level induced by cell lysate [12] | TGF-β1 level induced by cell lysate [13] | TNF-α level induced by heat-shocked cell solution [14] | cell death caused by drying stimulus (LIVE/DEAD assay) [15] | PLA2 activation caused by drying stimulus (released arachidonic acid) [16]
OC[C@H]1O[C@H](O[C@H]2O[C@H](CO)[C@@H](O)[C@H](O)[C@H]2O)[C@H](O)[C@@H](O)[C@@H]1O [trehalose] | significantly reduce the production amount of IgE | significantly reduce the production amount of IgE | significantly reduced the airway resistance | significantly increased the compliance | suppress damage to the alveolar epithelial cells | significantly reduced cell release | significantly suppress the expression of cytokines | significantly suppress the expression of cytokines | significantly suppress the expression of cytokines | protecting cells from oxygen free radicals and hemolysate | protecting cells from oxygen free radicals and hemolysate | depends on the dosage of trehalose | significantly reduced | significantly reduced | significantly reduced | significantly reduced | significantly reduced | suppresses cell death caused by drying stimulus | suppresses PLA2 activation caused by drying stimulus
OC[C@H]1O[C@@H](O[C@H]2[C@H](O)[C@@H](O)C(O)O[C@@H]2CO)[C@H](O)[C@@H](O)[C@H]1O (stereo partly shown) [lactose, reference compound] |  |  | does not have an action of suppressing an increase in the airway resistance | not different from each other |  | does not have an action of suppressing the release of inflammation-inducing cells |  |  |  |  |  |  |  |  |  |  |  |  | 
